Tested on: 282377-053-R-J1-PDC complex spheroids, viability
Test: Anticancer human tumor 282377-053-R-J1-PDC patient-derived colon adenocarcinoma cell line growth inhibition [GQUAD]
Conditions: for IC50: curve of first compound; for viability, T/C: stronger effect = lower value
Excerpt: DNA G-quadruplex Stabilizer Agents in Combinations in Complex Spheroids
A high-throughput screen of multi-cell type tumor spheroids was designed to identify active combinations of DNA G-quadruplex stabilizer agents and targeted small molecules. Complex spheroids include a stromal component modeled by human endothelial cells (HUVEC) and fibroblasts modeled by human mesenchymal stem cells (MSCs). The concentration ranges selected for each drug and investigational agent were based upon clinically achievable concentrations if the clinical Cmax of the agent was known.
Compounds. The drugs and investigational agents: pidnarulex (CX-5461; NSC782164), APTO-253 (NSC789042), BRACO-19 (NSC847499), peposertib (NSC802822), ceralasertib (NSC780249), elimusertib (NSC800525), camonsertib (NSC841442), AZD-1390 (NSC803789), olaparib (NSC753686), talazoparib (NSC767125), ART-558 (NSC835418), sotorasib (NSC818433), MRTX-1133 (NSC836407), SN-38 (NSC673596), topotecan (NSC609699), etoposide (NSC141540), doxorubicin (NSC123127), gemcitabine (NSC613327), 5-fluorouracil (NSC19893), paclitaxel (NSC125973), vemurafenib (NSC761431), panobinostat (NSC761190), R-306465 (JNJ-16241199; NSC773264), adavosertib (NSC754352), TP-3654 (NSC805149), carboplatin (NSC241240), KSQ-4279 (NSC840948), and staurosporine (NSC755774) were obtained from the National Cancer Institute (NCI) Developmental Therapeutics Program Chemical Repository (34). The FDA-approved anticancer drug set is available from the NCI Developmental Therapeutics Program. […] The stock solutions were prepared in dimethyl sulfoxide (DMSO, Sigma-Aldrich, St. Louis, MO, cat. D2650) at 800-fold the tested concentration and stored at -70 degrees C prior to their use. All drugs and investigational agents were tested over a range starting from a high concentration at or near the clinical Cmax and decreasing in half-log increments. If the clinical Cmax for an agent had not been determined, the highest concentration tested was 10 microM.
2.3 Cell Culture. All cells were maintained in an incubator at 37 degrees C and 5% CO2 with 95% humidity. The PDC lines were cultured according to standard operating procedures established by the NCI PDMR. All PDCs were thawed and cultured in Matrigel-coated flasks prepared with a working solution of 1X Ham's F-12 nutrient mix, without supplementation (Invitrogen, cat. 11765054), 100 U/mL penicillin-streptomycin (Invitrogen, cat. 15140122), and 2.5% Matrigel (Corning Inc., cat. 354248) for the first three passages. The 857933-349-R-J2-PDC line was cultured in 6C/Colon 1B media, which includes advanced DMEM/F-12 (Thermo Fisher Scientific, cat. 12634028), 10 mM HEPES (Thermo Fisher Scientific, cat. 15630080), 1X GlutaMAX supplement (Thermo Fisher Scientific, cat. 35050061), 0.1 mg/mL primocin (InvivoGen, cat. ant-pm-2), 10% defined fetal bovine serum, heat inactivated (HyClone Laboratories Inc., cat. SH30070.03HI), 50% L-WRN conditioned media (ATCC, cat. CRL-3276), 1.25 mM N-Acetyl-L-cysteine (Sigma-Aldrich, cat. A9165), 10 mM nicotinamide (Sigma-Aldrich, cat. N0636), 1X B-27 supplement (Thermo Fisher Scientific, cat. 17504044), 1X N-2 supplement (Thermo Fisher Scientific, cat. 17502048), 10 microM Y-27632 dihydrochloride (Tocris Bioscience, cat. 1254), and 50 ng/mL human EGF recombinant protein (Thermo Fisher Scientific, cat. PHG0311). The 485176-168-R4-J1-PDC line was cultured in Panc media, which includes all 6C/Colon 1B media components plus 100 ng/mL human FGF-10 (Thermo Fisher Scientific, cat. 100-26), 500 nM SB-431542 (Selleckchem, cat. S1067), and gastrin (Tocris, cat. 3006).
[…]

[1] = second compound 0.0316 µM, first compound 0.0316 µM
[2] = second compound 0.0316 µM, first compound 0.316 µM
[3] = second compound 0.1 µM, first compound 0.0316 µM
[4] = second compound 0.1 µM, first compound 0.316 µM
[5] = second compound 0.316 µM, first compound 0.0316 µM
[6] = second compound 0.316 µM, first compound 0.316 µM
[7] = second compound 1 µM, first compound 0.0316 µM
[8] = second compound 1 µM, first compound 0.316 µM
[9] = second compound 3.16 µM, first compound 0.0316 µM
[10] = second compound 3.16 µM, first compound 0.316 µM
[11] = second compound 10 µM, first compound 0.0316 µM
[12] = second compound 10 µM, first compound 0.316 µM
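Also: spheroids exposed to compounds for 7 days before readout.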
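For viability, T/C in this document: percent of vehicle DMSO control viability with 100% = untreated-like growth.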

SMILES: Cc1[nH]c2ccccc2c1CCNCc1ccc(/C=C/C(=O)NO)cc1 + Cc1[nH]c2ccc(F)cc2c1-c1nc2c3cccnc3c3ncccc3c2[nH]1
- IC50 (second compound 0.0316 µM): > 316 nM
- IC50 (second compound 0.1 µM): > 316 nM
- IC50 (second compound 0.316 µM): > 316 nM
- IC50 (second compound 1 µM): > 316 nM
- IC50 (second compound 3.16 µM): 196 nM
- IC50 (second compound 10 µM): < 0.999 nM
- viability, T/C (second compound 0.0316 µM, first compound 0.000999 µM): 87.8%
- viability, T/C (second compound 0.0316 µM, first compound 0.00316 µM): 100%
- viability, T/C (second compound 0.0316 µM, first compound 0.00999 µM): 105%
- viability, T/C [1]: 90.3%
- viability, T/C (second compound 0.0316 µM, first compound 0.0999 µM): 93%
- viability, T/C [2]: 96.8%
- viability, T/C (second compound 0.1 µM, first compound 0.000999 µM): 97.4%
- viability, T/C (second compound 0.1 µM, first compound 0.00316 µM): 98.9%
- viability, T/C (second compound 0.1 µM, first compound 0.00999 µM): 79.9%
- viability, T/C [3]: 89.9%
- viability, T/C (second compound 0.1 µM, first compound 0.0999 µM): 74.6%
- viability, T/C [4]: 70.7%
- viability, T/C (second compound 0.316 µM, first compound 0.000999 µM): 102%
- viability, T/C (second compound 0.316 µM, first compound 0.00316 µM): 106%
- viability, T/C (second compound 0.316 µM, first compound 0.00999 µM): 74.6%
- viability, T/C [5]: 97.4%
- viability, T/C (second compound 0.316 µM, first compound 0.0999 µM): 97.8%
- viability, T/C [6]: 96.1%
- viability, T/C (second compound 1 µM, first compound 0.000999 µM): 116%
- viability, T/C (second compound 1 µM, first compound 0.00316 µM): 95.8%
- viability, T/C (second compound 1 µM, first compound 0.00999 µM): 93.8%
- viability, T/C [7]: 101%
- viability, T/C (second compound 1 µM, first compound 0.0999 µM): 87.9%
- viability, T/C [8]: 88.1%
- viability, T/C (second compound 3.16 µM, first compound 0.000999 µM): 70.8%
- viability, T/C (second compound 3.16 µM, first compound 0.00316 µM): 75.7%
- viability, T/C (second compound 3.16 µM, first compound 0.00999 µM): 60.9%
- viability, T/C [9]: 66.2%
- viability, T/C (second compound 3.16 µM, first compound 0.0999 µM): 67.1%
- viability, T/C [10]: 38.1%
- viability, T/C (second compound 10 µM, first compound 0.000999 µM): 32.5%
- viability, T/C (second compound 10 µM, first compound 0.00316 µM): 33.9%
- viability, T/C (second compound 10 µM, first compound 0.00999 µM): 52.2%
- viability, T/C [11]: 34.4%
- viability, T/C (second compound 10 µM, first compound 0.0999 µM): 22.3%
- viability, T/C [12]: 25.2%

SMILES: O=C(c1cc(Cc2n[nH]c(=O)c3ccccc23)ccc1F)N1CCN(C(=O)C2CC2)CC1 + Cc1[nH]c2ccc(F)cc2c1-c1nc2c3cccnc3c3ncccc3c2[nH]1
- IC50 (second compound 0.0316 µM): > 10000 nM
- IC50 (second compound 0.1 µM): > 10000 nM
- IC50 (second compound 0.316 µM): > 10000 nM
- IC50 (second compound 1 µM): > 10000 nM
- IC50 (second compound 3.16 µM): > 10000 nM
- IC50 (second compound 10 µM): 1550 nM
- viability, T/C [1]: 134%
- viability, T/C (second compound 0.0316 µM, first compound 0.1 µM): 107%
- viability, T/C [2]: 102%
- viability, T/C (second compound 0.0316 µM, first compound 1 µM): 122%
- viability, T/C (second compound 0.0316 µM, first compound 3.16 µM): 110%
- viability, T/C (second compound 0.0316 µM, first compound 10 µM): 92%
- viability, T/C [3]: 87.8%
- viability, T/C (second compound 0.1 µM, first compound 0.1 µM): 98.6%
- viability, T/C [4]: 99.2%
- viability, T/C (second compound 0.1 µM, first compound 1 µM): 99.6%
- viability, T/C (second compound 0.1 µM, first compound 3.16 µM): 105%
- viability, T/C (second compound 0.1 µM, first compound 10 µM): 89%
- viability, T/C [5]: 92.8%
- viability, T/C (second compound 0.316 µM, first compound 0.1 µM): 115%
- viability, T/C [6]: 101%
- viability, T/C (second compound 0.316 µM, first compound 1 µM): 107%
- viability, T/C (second compound 0.316 µM, first compound 3.16 µM): 97.1%
- viability, T/C (second compound 0.316 µM, first compound 10 µM): 97%
- viability, T/C [7]: 101%
- viability, T/C (second compound 1 µM, first compound 0.1 µM): 111%
- viability, T/C [8]: 122%
- viability, T/C (second compound 1 µM, first compound 1 µM): 111%
- viability, T/C (second compound 1 µM, first compound 3.16 µM): 110%
- viability, T/C (second compound 1 µM, first compound 10 µM): 114%
- viability, T/C [9]: 75.4%
- viability, T/C (second compound 3.16 µM, first compound 0.1 µM): 76.7%
- viability, T/C [10]: 93%
- viability, T/C (second compound 3.16 µM, first compound 1 µM): 79.1%
- viability, T/C (second compound 3.16 µM, first compound 3.16 µM): 69.8%
- viability, T/C (second compound 3.16 µM, first compound 10 µM): 54.7%
- viability, T/C [11]: 58.2%
- viability, T/C (second compound 10 µM, first compound 0.1 µM): 40.2%
- viability, T/C [12]: 71.9%
- viability, T/C (second compound 10 µM, first compound 1 µM): 57.9%
- viability, T/C (second compound 10 µM, first compound 3.16 µM): 38.4%
- viability, T/C (second compound 10 µM, first compound 10 µM): 25.8%

Reference: PubChem BioAssay AID2060501 (Molecular Pharmacology Branch, DTP, NCI, 2025)
